Experimental findings from patent publication US20140349332A1, “METHOD AND DEVICE FOR EXAMINING MYOCARDIAL TOXICITY AND EVALUATING CARDIOMYOCYTE” (priority 2011, published 2014) are described below.

The data set relates to cardiomyocyte network. Description: Simultaneous measurement of extracellular potential (FP) and contractile force (optical imaging of probe microparticles) in cardiomyocyte network. It counts as cell-based. The text has this: FIG. 43 is a schematic diagram showing an example of a system configuration of the present invention to simultaneously measure the mechanical properties and electrical properties of cardiomyocytes. The present system includes (1) a cellular network chip that can be used for culturing a cell population, includes a plurality of micro-electrodes disposed on a substrate and can be used for acquiring cellular potential data of a small area of the population; (2) a chip mounter for mounting the chip and joining electrically with cell-stimulating and/or cellular potential measuring system; (3) an environmental control vessel which can be used to control the environment such as temperature, humidity, oxygen concentration and carbon dioxide concentration of the cell population being cultured; (4) a micro multi-electrode potential measurement system that can give stimulation to a specific cell of a cardiomyocyte population, and allows simultaneous continuous measurements of cellular potentials of various small areas in the cell population; (5) one or more position-coordinate probe microparticles configured to measure changes in shape of myocardial cells and allow easy identification of cardiomyocytes using a plastic, polymer, glass or metal microparticles such as polystyrene microparticles, glass microparticles or gold microparticles of sizes from at minimum about 0.1, 0.2 μm, 0.3 μm, 0.4 μm, 0.5 μm, 0.6 μm, 0.7 μm, or preferably about 0.8 μm, more preferably about 0.9 μm, or most preferably about 1 μm, to at most about 500 μm, 400 μm, 300 μm, preferably about 200 μm, more preferably about 100 μm or most preferably about 50 μm, wherein the particles are disposed in the cell population by mixing them on the surface of the cardiomyocyte population in the cell network chip or in the cell population and culturing them; (6) an optical image capturing system for optically measuring the microparticles, wherein the system includes a light source, an optical microscope and an image-capturing camera to capture the images of the microparticles; and (7) a computer system for image analysis, cellular potential analysis, stimulus control and/or integrated data acquisition, wherein the system is capable of measurements of cellular potential and analysis of waveforms of the potential, measurements of cell displacements by image analysis and feedback stimulation based on the analysis results. In the measurements using the device system, as for the stimulus to cause depolarization of the myocardial cells, the stimulus can be provided by selecting mainly from three means, i.e., (A) measurements using conduction of autonomous pulsation of the cardiomyocyte population, (B) measurements of conduction by providing a forced electrical stimulation from outside to a specific cell in the cardiomyocyte population and (C) measurements of conduction by providing a feed-back stimulus at a specific timing to meet the relationship of the delay time and the value of the cellular potential based on the cell voltage measured data to the specific cells in the cardiomyocyte population.
FIG. 44 is an example of a data acquisition monitor screen showing an example of data obtained from an example of a system configuration of the present invention to simultaneously measure the mechanical properties and the electrical properties of cardiomyocytes. In a setting of this example, a large number of polystyrene microparticles are placed on the surface of the cardiomyocyte population, a probe-particle displacement-observation window for five of the polystyrene microparticles selected as probes is set, and the center of gravity of the window moves with the movement of the microparticles in the window, thereby displacement of the particular probe microparticles can be measured continuously as a change in vector time in the directions of the X-axis and Y-axis. […]

The mark [1] stands for this setting: drug concentration of 100 nM, FIG. 52B.

Regarding `COc1ccc(CCN(C)CCCC(C#N)(c2ccc(OC)c(OC)c2)C(C)C)cc1OC` (stereo not drawn) [verapamil], under “1000 nM, FIG. 52A”, the electrophysiological excitation entry is on record as “does not occur” and the mechanical contraction result is recorded as “mechanical contraction does not occur”. Moreover, the “angle fluctuation against decrease in contractile force” value (administration of 10 nM, FIG. 54B) was “barely increases”. Where the note is “administration of 100 nM, FIG. 54B”, the “fluctuation of contractile direction in the angular direction” value is “rapid fluctuation”. Moreover, under setting [1], the contractile force entry is “disappear rapidly” and the “electrical firing of excitatory conduction of cells” value is reported as “maintained”.
